The term IC50 denotes the concentration that gives 50% inhibition. By melting point is commonly meant the temperature, or range, at which the solid turns liquid.

Structures can show the parent of a compound that is named as a salt.

Data set [1] in a line: Hygroscopicity measured at room temperature (weight change under moisture adsorption/desorption). The format is physicochemical. The conditions noted are these: humidity of 0 to 90%. As to the method: The hygroscopicity was measured at room temperature for each of the crystalline monohydrochloride 0.5 hydrate of Example 1 (compound A) produced by the method of the present invention and the amorphous powders of the compound of Example 6 of International Publication No. 2006/068163 (compound B) produced by a conventional technique.

The target of data set [2] is T1, human recombinant DPP IV (Homo sapiens, UniProt P27487).
T1 construct: purchased R&D system
T1 sequence (P27487 whole entry): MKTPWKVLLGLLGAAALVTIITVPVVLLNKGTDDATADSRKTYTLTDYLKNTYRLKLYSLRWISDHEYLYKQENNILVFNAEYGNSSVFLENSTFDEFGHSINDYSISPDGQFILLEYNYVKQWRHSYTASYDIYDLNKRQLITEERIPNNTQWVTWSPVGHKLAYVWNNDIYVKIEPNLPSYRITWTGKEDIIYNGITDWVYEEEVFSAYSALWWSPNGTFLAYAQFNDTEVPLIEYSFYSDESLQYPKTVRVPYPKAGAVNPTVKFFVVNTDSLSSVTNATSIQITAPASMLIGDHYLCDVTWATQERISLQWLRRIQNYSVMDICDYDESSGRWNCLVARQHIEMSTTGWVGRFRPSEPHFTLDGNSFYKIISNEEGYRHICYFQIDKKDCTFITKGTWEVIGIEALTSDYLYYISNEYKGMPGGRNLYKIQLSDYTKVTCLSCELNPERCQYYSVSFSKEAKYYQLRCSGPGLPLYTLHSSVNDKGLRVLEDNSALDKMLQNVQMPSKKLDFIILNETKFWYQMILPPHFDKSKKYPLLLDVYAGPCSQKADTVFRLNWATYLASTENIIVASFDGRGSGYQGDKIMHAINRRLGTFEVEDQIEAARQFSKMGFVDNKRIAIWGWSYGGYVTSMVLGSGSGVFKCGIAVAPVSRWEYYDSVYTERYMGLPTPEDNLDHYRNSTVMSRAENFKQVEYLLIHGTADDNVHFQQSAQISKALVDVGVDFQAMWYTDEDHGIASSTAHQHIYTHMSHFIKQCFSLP
Put plainly: In vitro DPP-IV inhibitory action measurement test. The settings on record: preincubated 100 to 110 minutes, substrate Gly-Pro-MCA 40 μmol/L. The format is biochemical. The protocol: Solutions containing test compounds were prepared at various concentrations and added to microassay plates. Further, human recombinant DPP IV (R&D system) was added and preincubated at room temperature for 100 to 110 minutes, followed by adding a substrate (Glycyl-L-proline 4-methylcoumaryl-7-amide, Peptide Institute, Inc.; final concentration: 40 μmol/L) to start the enzymatic reaction. The enzymatic reaction rate was determined by measuring the fluorescence change with time for 10 minutes after 10 minutes elapsed from the start of addition of the substrate using a fluorescence plate reader (excitation wavelength: 380 nm, measurement wavelength: 460 nm). From the results obtained, the compound concentration showing 50% inhibition was calculated as an IC50 value.

Data set [3] is described as follows: Storage stability under a light source: residual rate by HPLC and appearance after two week storage. The format is physicochemical. The conditions noted are these: for residual rate: HPLC area percentage; for change in color after the stability test (in words) / stability under a light source (in words): both 1000 lux and 4000 lux. As to the method:
The residual rates after two week storage under a light source of 1000 lux and 4000 lux were measured for each of the crystalline monohydrochloride 0.5 hydrate of Example 1 (compound A) produced by the method of the present invention and the amorphous powders of the compound of Example 6 of International Publication No. 2006/068163 (compound B) produced by a conventional technique.
The residual rate (%) of a compound was determined by the area percentage of the residual rate of the compound measured using high performance liquid chromatography (HPLC). The HPLC measurement conditions were as follows:
Column: CAPCELL PAK C18 UG120 (4.6 mm I.D.×250 mm)
Mobile phase (A/B): 10 mM sodium phosphate buffer (pH=6.9)/CH3CN
Mobile phase (ratio of B): 30% (0 min) →90% (45 min)
Column temperature: 40° C.

[4] abbreviates: two week storage, 1000 Lux, 11% RH.
Where [5] appears, read: two week storage, 4000 Lux, 10% RH.

In the case of `Cn1c(=O)c2c(cc(N3CCC[C@@H](N)C3)n2Cc2cc(F)ccc2Cl)n(C)c1=O` [Compound A, 6-[(3R)-3-aminopiperidin-1-yl]-5-(2-chloro-5-fluorobenzyl)-1,3-dimethyl-1H-pyrrolo[3,2-d]pyrimidine-2,4(3H,5H)-dione monohydrochloride hemihydrate], in data set [1], the “change in the weight (hygroscopicity)” value was “no change in the weight”. The IC50 in data set [2] stood at 710 pM. Besides, in data set [3] (Initial), the “appearance (color)” value is “Pale yellow” and the residual rate was 100.0%. Also, in data set [3] (two week storage), the “change in color after the stability test (in words)” value is recorded as “no change in color” and the “stability under a light source (in words)” value is “extremely high stability”. Moreover, in data set [3] (setting [4]), the “appearance (color)” value was “Pale yellow” and the residual rate is reported as 100.0%. Moreover, in data set [3] (setting [5]), the “appearance (color)” value is “Pale yellow” and the residual rate stood at 99.9%.
Take `Cn1c(=O)c2c(cc(N3CCC[C@@H](N)C3)n2Cc2cc(F)ccc2Cl)n(C)c1=O` (as salt: hydrochloride) (hydrate or solvate) [Compound A, 6-[(3R)-3-aminopiperidin-1-yl]-5-(2-chloro-5-fluorobenzyl)-1,3-dimethyl-1H-pyrrolo[3,2-d]pyrimidine-2,4(3H,5H)-dione monohydrochloride hemihydrate]: the melting point is 205 to 208 °C.
Consider `Cl.Cn1c(=O)c2c(cc(N3CCC[C@@H](N)C3)n2Cc2cc(F)ccc2Cl)n(C)c1=O` [Compound B, reference compound], for which the “change in the weight (hygroscopicity)” value in data set [1] is reported as −5.0 to 9.0%. In addition, in data set [3] (Initial), the “appearance (color)” value is on record as “Pale yellow” and the residual rate was 100.0%. Besides, in data set [3] (two week storage), the “change in color after the stability test (in words)” value is “apparently changed in color to yellow” and the “stability under a light source (in words)” value was “low stability”. Also, in data set [3] (setting [4]), the “appearance (color)” value is “Yellow” and the residual rate worked out at 99.2%. In data set [3] (setting [5]), the “appearance (color)” value was “Yellow” and the residual rate worked out at 97.4%.

For the origin of these results see patent publication US20110009433A1, “BICYCLIC PYRROLE COMPOUND” (DAINIPPON SUMITOMO PHARMA CO., LTD., priority 2008, published 2011).
